Assay results: patent publication US20230279233A1, “ATROROSINS AS FOOD COLORS” (Chromologics ApS, priority 2020, published 2023)
Several values for one entry are separate records, joined by “and”; a condition that tells them apart may be missing. Equal values may be shown once. Read-outs that look alike come from different tables or passages of the source.

Assays:
[1] = Temperature stability at 60° C. and 80° C. in McIlvaine buffer pH 5, absorption maxima
Description: Buffer and atrorosin was mixed for 5 minutes before the solutions were subjected heating in an incubator at 60° C. and 80° C. to colorimetric analysis using spectrophotometer. The absorption maxima at 425 nm and 490 nm were determined in a microtiter plate with a 0.45 cm cell length with buffer as blank. In comparison to the data in Table 3, the absorption spectrum of betanin is determined as above. […] In comparison to Table 5, the absorption spectrum of betanin is determined as above.

[2] = background, literature; cited from earlier work
[3] = pH stability in McIlvaine buffer pH 2.2-7.2, absorption maxima by spectrophotometer; assay type: physicochemical
Description: In comparison to the pH data for Atrorosin-E of Table 1, the absorption spectrum of carminic acid is determined as above. Its absorption maxima are 495 nm, 525 nm, 565 nm. The pH stability data for carminic acid is shown below in Table 2: […]

[4] = system: TA 98; test: mini-Ames (AMES MPF) genotoxicity; assay type: cell-based
Description: Resulting powder from example 2 was sent to Cyprotox to asses for genotoxicity in a mini-Ames experiment. 43.2 mg of atrorosin was sent to Cyprotox. Mini-Ames test were conducted under the guidelines of OECD.
In comparison to the atrorosin tested above, similar 46.4 mg of carminic acid was also sent to Cyprotox to assess for genotoxicity.

[5] = Pharmacokinetic profile in rats, IV and PO; assay type: in vivo; settings: rat, IV 1 mg/kg; for Cmax: read-out: C0/Cmax
Description: Resulting powder from example 2 was sent to Evotec to asses for the pharmacokinetic profile of atrorosin. 6 rats were used, 3 rats for IV injection of atrorosin and 3 rats for PO. The rats were injected or given through mouth gauge 2 mg/kg, and blood samples were taken at regular intervals.
In comparison to example 10, similar carminic acid was also sent to Evotec to assess the pharmacokinetic profile.

[6] = pH stability in McIlvaine buffer pH 2.2-7.2, absorption maxima by spectrophotometer; assay type: physicochemical; remark: listed apart in the source
[7] = Pharmacokinetic profile in rats, IV and PO; assay type: in vivo; settings: rat, IV 1 mg/kg

With `O=C(O)C1=C/C(=C/C=[N+]2/c3cc(O)c(OC4OC(CO)[C@@H](O)C(O)C4O)cc3CC2C(=O)[O-])CC(C(=O)O)N1` (stereo in doubt) [betanin, reference compound] the “heat stability (in words)” value ([1]; 60° C. over 24 hours) was “degrades significantly”, the “Absorption at 530 nm” value ([1]; 60° C., 1 H) was 0.26 and the “Absorption at 530 nm” value ([1]; 60° C., 2 H) was 0.2. For the same compound, the “Absorption at 530 nm” value ([1]; 60° C., 3 H) was 0.17, the “Absorption at 530 nm” value ([1]; 60° C., 24 H) was 0.05 and the “Absorption at 530 nm” value ([1]; 60° C., T0: Start) was 0.29. For the same compound, the “heat stability (in words)” value ([1]; 80° C. over 3 hours) was “degrades significantly”, the “Absorption at 530 nm” value ([1]; 80° C., 1 H) was 0.07 and the “Absorption at 530 nm” value ([1]; 80° C., 2 H) was 0.05. For the same compound, the “Absorption at 530 nm” value ([1]; 80° C., 3 H) was 0.03, the “Absorption at 530 nm” value ([1]; 80° C., 15 min) was 0.19 and the “Absorption at 530 nm” value ([1]; 80° C., T0: Start) was 0.28. The “temperature stability (in words)” value [2] was “lack of stability over 40 °C”.

In the case of `Cc1c(C(=O)O)c(O)cc2c1C(=O)c1c(O)c([C@@H]3O[C@H](CO)[C@@H](O)[C@H](O)[C@H]3O)c(O)c(O)c1C2=O` [carminic acid, reference compound], the “Absorption at 495 nm” value ([3]; pH 2.2) is reported as 0.859, the “Absorption at 525 nm” value ([3]; pH 2.2) is reported as 0.88 and the “Absorption at 495 nm” value ([3]; pH 3.5) is reported as 1.289. For the same compound, the “Absorption at 525 nm” value ([3]; pH 3.5) was 1.404, the “Absorption at 495 nm” value ([3]; pH 5) was 1.561 and the “Absorption at 525 nm” value ([3]; pH 7.2) was 2.171. For the same compound, the “Absorption at 565 nm” value ([3]; pH 7.2) was 2.23, the “Fold increase (over baseline)” value ([4]; TA 98 +S9, 62.5 μg/ml) was 0.42 and the “mean # pos. Wells” value ([4]; TA 98 +S9, 62.5 μg/ml) was 1.00. For the same compound, the “Fold increase (over baseline)” value ([4]; TA 98 +S9, 125 μg/ml) was 0.28, the “mean # pos. Wells” value ([4]; TA 98 +S9, 125 μg/ml) was 0.67 and the “Fold increase (over baseline)” value ([4]; TA 98 +S9, 250 μg/ml) was 0.14. For the same compound, the “mean # pos. Wells” value ([4]; TA 98 +S9, 250 μg/ml) was 0.33, the “Fold increase (over baseline)” value ([4]; TA 98 +S9, 500 μg/ml) was 0.00 and the “mean # pos. Wells” value ([4]; TA 98 +S9, 500 μg/ml) was 0.00. For the same compound, the “Fold increase (over baseline)” value ([4]; TA 98 +S9, 1000 μg/ml) was 0.00, the “mean # pos. Wells” value ([4]; TA 98 +S9, 1000 μg/ml) was 0.00 and the “Fold increase (over baseline)” value ([4]; TA 98 +S9, 2000 μg/ml) was 0.14. The “mean # pos. Wells” value ([4]; TA 98 +S9, 2000 μg/ml) was 0.33, the “Fold increase (over baseline)” value ([4]; TA 98 −S9, 62.5 μg/ml) was 0.25 and the “mean # pos. Wells” value ([4]; TA 98 −S9, 62.5 μg/ml) was 0.33. For the same compound, the “Fold increase (over baseline)” value ([4]; TA 98 −S9, 125 μg/ml) was 0.51, the “mean # pos. Wells” value ([4]; TA 98 −S9, 125 μg/ml) was 0.67 and the “Fold increase (over baseline)” value ([4]; TA 98 −S9, 250 μg/ml) was 0.25. For the same compound, the “mean # pos. Wells” value ([4]; TA 98 −S9, 250 μg/ml) was 0.33, the “Fold increase (over baseline)” value ([4]; TA 98 −S9, 500 μg/ml) was 0.25 and the “mean # pos. Wells” value ([4]; TA 98 −S9, 500 μg/ml) was 0.33. The “Fold increase (over baseline)” value ([4]; TA 98 −S9, 1000 μg/ml) was 0.00, the “mean # pos. Wells” value ([4]; TA 98 −S9, 1000 μg/ml) was 0.00 and the “Fold increase (over baseline)” value ([4]; TA 98 −S9, 2000 μg/ml) was 0.00. The “mean # pos. Wells” value ([4]; TA 98 −S9, 2000 μg/ml) was 0.00, the “genotoxic effects (in words)” value ([4]; mini-Ames study) was “do not exert any genotoxic effects” and the C0/Cmax ([5]; Mean) was 8213 ng/mL. It also gave a Clast ([5]; Mean) of 13.4 ng/mL, an MRT ([5]; Mean) of 3.5 h and a Vdss ([5]; Mean) of 0.3 L/kg. The t½ ([5]; Mean) was 3.5 ± 0.2 h, the Cmax ([5]; Mean) was 16.7 µM and the AUCinf ([5]; individual rats 1-3, 1 mg/kg) was 11497 ng · hr/mL and 12597 ng · hr/mL and 13408 ng · hr/mL and 23350 nM · hr and 25583 nM · hr and 27230 nM · hr. The C0/Cmax ([5]; individual rats 1-3, 1 mg/kg) was 7095 ng/mL and 6542 ng/mL and 11003 ng/mL, the CL/CL_F ([5]; individual rats 1-3, 1 mg/kg) was 1.4 mL/min/kg and 1.3 mL/min/kg and 1.2 mL/min/kg and the Clast ([5]; individual rats 1-3, 1 mg/kg) was 12.3 ng/mL and 12.7 ng/mL and 15.3 ng/mL. The MRT ([5]; individual rats 1-3, 1 mg/kg) was 3.2 h and 3.3 h and 3.9 h, the t½ ([5]; individual rats 1-3, 1 mg/kg) was 3.7 h and 3.4 h (2×) and the Cmax ([5]; individual rats 1-3, 1 mg/kg) was 14.4 µM and 13.3 µM and 22.3 µM. The “Absorption at 565 nm” value ([6]; pH 2.2) was 0.771, the “Absorption at 565 nm” value ([6]; pH 3.5) was 1.365 and the “Absorption at 525 nm” value ([6]; pH 5) was 1.834. The “Absorption at 565 nm” value ([6]; pH 5) was 1.852, the “Absorption at 495 nm” value ([6]; pH 7.2) was 1.625 and the “CL/CL_F (plasma clearance)” value ([7]; Mean) was 1.3 ± 0.1 mL/min/kg. The Tlast ([7]; individual rats 1-3) was 24 h, the Vdss ([7]; individual rats 1-3) was 0.3 L/kg and the AUC0-t ([7]; individual rats 1-3, 1 mg/kg) was 11431 ng · hr/mL and 12535 ng · hr/mL and 13332 ng · hr/mL and 23216 nM · hr and 25457 nM · hr and 27076 nM · hr. The “temperature stability (in words)” value [2] was “good temperature stability”.
